Our source for the Activity and Km values is ChEMBL document CHEMBL2073872, “Rat multispecific organic anion transporter 1 (rOAT1) transports zidovudine, acyclovir, and other antiviral nucleoside analogs” (J Pharmacol Exp Ther, 2000).

Data set [1] concerns the target T1, Solute carrier family 22 member 6 (Rattus norvegicus, UniProt O35956).
T1 sequence (O35956 whole entry): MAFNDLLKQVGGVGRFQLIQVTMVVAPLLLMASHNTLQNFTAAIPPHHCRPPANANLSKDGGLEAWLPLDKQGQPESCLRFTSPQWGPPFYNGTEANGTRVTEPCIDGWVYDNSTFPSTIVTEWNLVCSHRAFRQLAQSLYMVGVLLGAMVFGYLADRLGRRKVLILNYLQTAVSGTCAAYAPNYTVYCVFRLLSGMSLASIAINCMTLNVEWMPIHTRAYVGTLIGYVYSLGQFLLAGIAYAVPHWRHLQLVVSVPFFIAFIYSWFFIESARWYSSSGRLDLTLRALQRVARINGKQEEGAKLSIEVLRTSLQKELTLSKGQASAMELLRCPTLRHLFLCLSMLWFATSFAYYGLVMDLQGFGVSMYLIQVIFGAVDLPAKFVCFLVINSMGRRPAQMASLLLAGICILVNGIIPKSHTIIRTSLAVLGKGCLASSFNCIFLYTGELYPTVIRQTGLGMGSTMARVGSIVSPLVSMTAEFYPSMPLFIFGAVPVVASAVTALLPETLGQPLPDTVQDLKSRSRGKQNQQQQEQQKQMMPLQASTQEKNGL
The experiment in a line: TP_TRANSPORTER: inhibition of PAH uptake (PAH: 2 uM, ACV: 1000 uM) in Xenopus laevis oocytes. It counts as functional, cell-based. Particulars: oocyte.

The target in data set [2] is T1, Solute carrier family 22 member 6. Put plainly: (§1) TP_TRANSPORTER: uptake in Xenopus laevis oocytes. It counts as functional, cell-based, Oocyte. Particulars: for Activity: oocyte.
The target is the same in data set [3]. Put plainly: TP_TRANSPORTER: inhibition of PAH uptake (PAH: 2 uM, Foscarnet: 1000 uM) in Xenopus laevis oocytes. In kind it is functional, cell-based. Particulars: oocyte.
The target is the same in data set [4]. Put plainly: TP_TRANSPORTER: inhibition of PAH uptake (PAH: 2 uM, Trifluridine: 1000 uM) in Xenopus laevis oocytes. In kind it is functional, cell-based. Particulars: oocyte.
Substrate in data set [5]: Nc1nc2c(ncn2COCCO)c(=O)[nH]1
Described as §1. It counts as functional, cell-based, Oocyte.

Broadly, the Km is the concentration of substrate that gives half-maximal velocity.

On to `Nc1nc2c(ncn2COCCO)c(=O)[nH]1` [ACYCLOVIR], for which the Activity result in data set [1] is “inhibitor [(at a rough estimate) 50 % of control]”.

On to `O=c1[nH]cnc2c1ncn2[C@H]1CC[C@@H](CO)O1` [DIDANOSINE], for which the Activity result in data set [2] was “substrate [+]”.

Turning to `O=C(O)P(=O)(O)O` [FOSCARNET], the Activity result is “is not an inhibitor [-]” in data set [3] and “is not a substrate [-]” in data set [2].

For `Nc1ccn([C@@H]2CS[C@H](CO)O2)c(=O)n1` [LAMIVUDINE], the Activity entry in data set [2] is “substrate [+]”.

As for `Cc1cn([C@H]2C=C[C@@H](CO)O2)c(=O)[nH]c1=O` [STAVUDINE], in data set [2], the Activity result was “substrate [+]”.

Regarding `O=c1[nH]c(=O)n([C@H]2C[C@H](O)[C@@H](CO)O2)cc1C(F)(F)F` [TRIFLURIDINE], the Activity result in data set [4] is “inhibitor [(at a rough estimate) 50 % of control]”; in data set [2], “substrate [+]”.

On to `Nc1ccn([C@H]2CC[C@@H](CO)O2)c(=O)n1` [ZALCITABINE], for which the Activity result in data set [2] is “substrate [+]”.

Regarding `Cc1cn([C@H]2C[C@H](N=[N+]=[N-])[C@@H](CO)O2)c(=O)[nH]c1=O` [ZIDOVUDINE], the Km in data set [2] (Xenopus laevis oocytes) was 68 µM.

B1: Solute carrier family 22 member 6 (Rattus norvegicus) (protein)
chain: MAFNDLLKQVGGVGRFQLIQVTMVVAPLLLMASHNTLQNFTAAIPPHHCRPPANANLSKDGGLEAWLPLDKQGQPESCLRFTSPQWGPPFYNGTEANGTRVTEPCIDGWVYDNSTFPSTIVTEWNLVCSHRAFRQLAQSLYMVGVLLGAMVFGYLADRLGRRKVLILNYLQTAVSGTCAAYAPNYTVYCVFRLLSGMSLASIAINCMTLNVEWMPIHTRAYVGTLIGYVYSLGQFLLAGIAYAVPHWRHLQLVVSVPFFIAFIYSWFFIESARWYSSSGRLDLTLRALQRVARINGKQEEGAKLSIEVLRTSLQKELTLSKGQASAMELLRCPTLRHLFLCLSMLWFATSFAYYGLVMDLQGFGVSMYLIQVIFGAVDLPAKFVCFLVINSMGRRPAQMASLLLAGICILVNGIIPKSHTIIRTSLAVLGKGCLASSFNCIFLYTGELYPTVIRQTGLGMGSTMARVGSIVSPLVSMTAEFYPSMPLFIFGAVPVVASAVTALLPETLGQPLPDTVQDLKSRSRGKQNQQQQEQQKQMMPLQASTQEKNGL
For B1, the Km in data set [5] is 242 µM.
